Calls of active or inactive are those of the source. No rule for the calls is given here.
Assay: growth inhibition of yeast carrying parasite Hsp90, dose response, anti-malarial Hsp90 inhibitor project, ATP luminescence, 48 h, cherry-picked samples (AID 540268);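 as to activity change, negative = inhibition: 0% = neutral control wells and -100% = positive control wells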
Conditions: yeast expressing the parasite Hsp90, ATP luminescence

| SMILES | activity change, negative = inhibition (at 26 µM (top of the series)) | AC50 |
| --- | --- | --- |
| COc1ccc(NC(=S)Nc2ccc3snnc3c2)cc1 | -20.2% (inactive) | – |
| COc1ccc(OC)c2c1C(=O)C(Cl)=C(Cl)C2=O | – | 1.64 µM |
| CC1=CN2C(=N)/C(=C/c3ccc([N+](=O)[O-])o3)C(=O)N=C2S1 | – | 1.34 µM |
| Cc1ccc(Nc2nc(N)c([N+](=O)[O-])c(N3CCCC(C)C3)n2)cc1C (configuration not stated) | – | 3.73 µM |
| CC1CC(C)C(=NNC(N)=O)C(C(O)CC2CCC(=O)NC2=O)C1 (configuration not stated) | – | < 0.195 µM |
| C/C(=N\Nc1ncc(Cl)cc1Cl)c1ccccn1 | – | 1.8 µM |
| Cc1[nH]c2ccc(C(=O)N3CCN(c4cccc(Cl)c4)CC3)cc2c1C | – | 8.89 µM |
| COc1ccc(/C=C/C(=O)c2cc(Br)ccc(=O)c2O)cc1 | – | 3.21 µM |
| Cc1ccc(NC(=O)c2ccc(Cl)c(N3C(=O)C=CC3=O)c2)cc1 | – | 2.38 µM |
| O=C(Nc1ccccc1)c1nnsc1S(=O)(=O)c1ccc(Cl)cc1 | – | 0.435 µM |
| Cc1cc(C)cc(N2C(=O)C=CC2=O)c1 | – | < 0.195 µM |
| O=c1cc(-c2ccc(C3CCCCC3)cc2)[nH][nH]1 | – | 7.7 µM |
| O=[N+]([O-])/C=C/c1cn(Cc2ccc(F)cc2)c2ccccc12 | – | 5.61 µM |
| Cc1ccc(C(C[N+](=O)[O-])c2c(N)n(C)c(=O)n(C)c2=O)cc1 (configuration not stated) | – | 3.33 µM |
| O=C1C=CC(=O)N1c1ccc2c(c1)Cc1cc(F)ccc1-2 | – | < 0.195 µM |
| CC(C)(C)C1C/C(=C/c2ccccn2)C(=O)/C(=C/c2ccccn2)C1 (configuration not stated) | – | 8.29 µM |
| COc1ccc(C2=CC3=C(Br)C(=O)C(C)(OC(=O)c4cccs4)C(=O)C3=CO2)cc1 (configuration not stated) | – | 4.28 µM |
| CCCCCCCCCCCCCCCC[N+](C)(C)Cc1ccc(F)cc1 | – | 0.213 µM |
| CC(C)(C)c1ccc(C(=O)CC(Sc2ccc(Cl)cc2)C(=O)O)cc1 (configuration not stated) | – | 7.29 µM |
| CC[C@H](C)/C=C(C)/C=C/C1=CC2=C(Cl)C(=O)[C@](C)(OC(C)=O)C(=O)C2=CO1 | – | 2.11 µM |
| O=[N+]([O-])c1ccc(S(=O)Cc2ccccc2)c([N+](=O)[O-])c1 (configuration not stated) | – | 2.55 µM |
| CN(C)C(=S)SSC(=S)N(C)C | – | 3.96 µM |
| Cc1ccc(S(=O)(=O)NCC23C=CC(O2)C2C(=O)N(c4ccccc4)C(=O)C23)cc1 (configuration not stated) | – | 4.8 µM |

| SMILES | activity change, negative = inhibition (at 26 µM (top of the series)) | AC50 |
| --- | --- | --- |
| CCN1/C(=C/c2ccc3cc(C)cc(C)c3[n+]2CC)Sc2cc(C)ccc21 | – | 2.91 µM |
| CCCCCCCCCCCCCCCC(=O)OC(CC(=O)O)C[N+](C)(C)C (configuration not stated) | – | 1.23 µM |
| C=CC(C)(C)c1c(O)c(CC=C(C)C)c(O)c2c(=O)c3ccc(O)c(O)c3oc12 | – | 6.76 µM |
| Clc1ccc(CCC(Cn2ccnc2)Sc2c(Cl)cccc2Cl)cc1 (configuration not stated) | – | < 0.195 µM |
| Oc1c(C(Nc2nc3ccccc3s2)c2ccco2)ccc2cccnc12 (configuration not stated) | – | 24.8 µM |
| Cc1ccccc1CS(=O)(=O)c1nnc([C@H](Cc2ccccc2)NC(=O)OC(C)(C)C)o1 | – | 17.1 µM |
| COc1ccc(OC)c(N2C(=O)NC(=O)/C(=C/c3ccc([N+](=O)[O-])s3)C2=O)c1 | – | 4.26 µM |
| CCC(C)Nc1ccc(NC(C)CC)cc1 (configuration not stated) | – | 3.26 µM |
| CCCCC(=O)NC(c1cccs1)c1cc(Cl)c2cccnc2c1O (configuration not stated) | – | 4.18 µM |
| CCCCCCOc1ccc(N2C(=O)CC(N3CCC(C(=O)OCC)CC3)C2=O)cc1 (configuration not stated) | – | 4.38 µM |
| COc1ccc(NC(=O)C2CCCN2S(=O)(=O)c2cccc3cccnc23)c(OC)c1 (configuration not stated) | – | 1.31 µM |
| O=[N+]([O-])/C=C/c1ccc2c(ccn2Cc2ccccc2)c1 | – | 4.35 µM |
| O=C1C=CC(=O)N1c1ccc(N2CCCCC2)cc1 | – | 0.312 µM |
| Oc1c(Br)cc(Br)cc1C=Nc1cccnc1 | – | 5.8 µM |
| CCCCC(=O)NC(c1ccco1)c1cc(Cl)c2cccnc2c1O (configuration not stated) | – | 4.6 µM |
| CC(=O)NC(c1ccc(C(C)C)cc1)c1ccc2cccnc2c1O (configuration not stated) | – | 2.24 µM |
| CCCCC(=O)NC(c1cccc([N+](=O)[O-])c1)c1ccc2cccnc2c1O (configuration not stated) | – | 2.62 µM |
| N#CSCC(=O)c1cccc2ccccc12 | – | 1.92 µM |
| COc1ccc(/C=C/C(=O)NC(=S)NNC(=O)c2cnccn2)cc1 | – | 0.854 µM |
| CC1(C)N=C(SCC(=O)Nc2ccc(Cl)cc2)C(c2ccc(Cl)cc2)=N1 | – | 8.73 µM |
| CN(C)c1ccc(/C=C/c2ccc3c4ccccc4ccc3[n+]2-c2ccccc2)cc1 | – | 3.47 µM |
| COc1ccc(NC2CCN(C3CC(=O)N(c4ccc(F)c(Cl)c4)C3=O)CC2)cc1 (configuration not stated) | – | 2.61 µM |
| COc1cc(/C=C/C(=O)c2ccc([N+](=O)[O-])o2)ccc1O | – | 2.02 µM |

| SMILES | activity change, negative = inhibition (at 26 µM (top of the series)) | AC50 |
| --- | --- | --- |
| O=C(O)c1cccc2c1Cc1cc(Cl)ccc1-2 | – | 1.13 µM |
| O=C1/C(=C\c2ccc([N+](=O)[O-])cc2)CS(=O)(=O)C/C1=C/c1ccc([N+](=O)[O-])cc1 | – | 0.337 µM |
| COc1ccc(Nc2cnn(-c3nc4ccccc4s3)c(=O)c2Cl)cc1 | – | 3.21 µM |
| CCC(=O)NC(c1ccc(C)cc1)c1ccc2cccnc2c1O (configuration not stated) | – | 3.48 µM |
| Cc1ccc(O)c(-c2cc(-c3cccc(Br)c3)n[nH]2)c1 | – | 4.38 µM |
| O=S(=O)(NC1CC2CCC1C2)c1ccc(Br)cc1 (configuration not stated) | – | 0.86 µM |
| CCCCCCCC/C=C\CCCCCCCC(=O)NCCO | – | 9.25 µM |
| O=[N+]([O-])c1cc(-n2cnnn2)ccc1N1CCC(Cc2ccccc2)CC1 | – | 4.23 µM |
| OCCCn1c(C2CCCN2c2nc(-c3ccc(F)cc3)cs2)nc2cc(Cl)c(Cl)cc21 (configuration not stated) | – | 5.62 µM |
| CCOC(=O)COc1ccc2ccccc2c1/C=C/[N+](=O)[O-] | – | 4.46 µM |
| O=C(/C=C/c1ccccc1)CCN1CCOCC1 | – | 2.47 µM |
| Cc1cc2ccccn2c1C(=O)c1ccc([N+](=O)[O-])o1 | – | 2.33 µM |
| CC(C)N1CCN(c2ccc(OCC3COC(Cn4cncn4)(c4ccc(Cl)cc4Cl)O3)cc2)CC1 (configuration not stated) | – | 1.12 µM |
| COC1CCC(OC2CC(C3(C)CCC4(CC(O)C(C)C(C(C)/C=C(\C)C(=O)C(C)CC(C)C(=O)O)O4)O3)OC3(OC(C4OC(O)(CO)C(C)CC4C)CC3C)C2C)OC1C (configuration not stated) | – | 4.84 µM |
| COc1ccc(NC(=O)CCC(=O)N/N=C/c2ccc([N+](=O)[O-])s2)cc1 | – | 3.33 µM |
| Oc1c(C(Nc2nccs2)c2ccc(C(F)(F)F)cc2)ccc2cccnc12 (configuration not stated) | – | 2.49 µM |
| CCCCC(CC)CN=C(N)NC(N)=NCCCCCCN=C(N)NC(N)=NCC(CC)CCCC (configuration not stated) | – | 4.34 µM |
| COCC(=O)n1nc(NCc2ccc(OC)cc2)nc1NCc1ccc(OC)cc1 | – | 8.06 µM |
| Clc1ccccc1C(c1ccccc1)(c1ccccc1)n1ccnc1 | – | < 0.195 µM |
| Cc1ccc2nc(/C(C#N)=C\c3ccc([N+](=O)[O-])o3)[nH]c2c1 | – | < 0.195 µM |
| N#C/C(=C\c1ccc([N+](=O)[O-])o1)C(=O)Nc1ccc(F)cc1 | – | 0.33 µM |
| Oc1ccc(/C=N/N(Cc2ccccc2)c2ccccc2)cc1 | – | 8.09 µM |
| CCc1ccc(S(=O)(=O)N(C(=O)c2ccncc2)c2ccc(OC(=O)c3ccncc3)cc2)cc1 | – | 1.28 µM |

| SMILES | activity change, negative = inhibition (at 26 µM (top of the series)) | AC50 |
| --- | --- | --- |
| CC1OC(CC(=O)O)CC2=C1C(=O)c1c(O)cccc1C2=O (configuration not stated) | – | < 0.195 µM |
| CC(=NNC(=S)N1CC2CCC(CC2)C1)c1ccncn1 | – | 2.36 µM |
| CCC(C)n1ncn(-c2ccc(N3CCN(c4ccc(OCC5COC(Cn6cncn6)(c6ccc(Cl)cc6Cl)O5)cc4)CC3)cc2)c1=O (configuration not stated) | – | < 0.195 µM |
| CC(=O)Oc1ccccc1C(=O)C=Cc1cccc([N+](=O)[O-])c1 | – | 1.66 µM |
| O=C(C#Cc1ccccc1)c1cccc([N+](=O)[O-])c1 | – | 0.291 µM |
| CCCCCCCCn1sccc1=O | – | 0.871 µM |
| CCCCCCCCCCOC(=O)Cn1c(COc2cccc(C)c2)[n+](C)c2ccccc21 | – | 15.5 µM |
| O=C(NCCCSc1ccccc1)c1cc(Br)ccc1O | – | 7.37 µM |
| CC(C)C1Nc2c(O)cc(Cl)c([N+](=O)[O-])c2C2C=CCC21 (configuration not stated) | – | 6.63 µM |
| O=C(O)c1ccc(N/N=C/c2ccc(-c3ccccc3)cc2)cc1 | – | 4.22 µM |
| Nc1nonc1C(=O)NCCN=Cc1cc(Cc2ccccc2)cc(Br)c1O | – | 2.3 µM |
| O=C(/C=C/c1cccc([N+](=O)[O-])c1)c1cccs1 | – | 2.63 µM |
| CCOC(=O)c1ccc(N2C(=O)C=CC2=O)cc1 | – | < 0.195 µM |
| COc1ccc(C(=O)NC(=S)NNC(=O)c2cnccn2)cc1 | – | 2.98 µM |
| Cc1ccc(C(=O)C(SC(C)(C)C)n2cncn2)cc1 (configuration not stated) | – | 4.25 µM |
| CCOc1ccc(N2C(=O)/C(=C\c3ccccc3OC)S(=O)(=O)C2c2cccc([N+](=O)[O-])c2)cc1 (configuration not stated) | – | 21.6 µM |
| CCOCCCNC1=C(Cl)C(=O)c2ccccc2C1=O | – | 4.93 µM |
| Cc1ccccc1Oc1cc(-n2ncc(Cl)c(Cl)c2=O)ncn1 | – | 1.11 µM |
| C[C@@]12C(=O)Nc3ccc(Cl)cc3C(=O)N1[C@H]1c3ccccc3OC[C@@H]1[C@@H]2c1ccccc1 | – | 0.487 µM |
| CCCCCCCCOC(=O)c1cc([N+](=O)[O-])c(Sc2ncnc3nc[nH]c23)c([N+](=O)[O-])c1 | – | 1.4 µM |
| Cc1occc1-c1nnc(-c2cc([N+](=O)[O-])cc([N+](=O)[O-])c2)o1 | – | 2.4 µM |
| On1ccccc1=S | – | < 0.195 µM |
| CCOC(=O)c1ccc(N2C(=O)CC(N(C)CCc3ccc(OC)c(OC)c3)C2=O)cc1 (configuration not stated) | – | 3.14 µM |

| SMILES | activity change, negative = inhibition (at 26 µM (top of the series)) | AC50 |
| --- | --- | --- |
| O=C1S/C(=C\c2ccc(N3CCOCC3)o2)C(=O)N1Cc1c(F)cccc1Cl | – | 11.1 µM |
| N#Cc1c2ccc([N+](=O)[O-])cc2[n+]([O-])n1-c1ccccc1 | – | 2.1 µM |
| CCCCCCCCCCCCCCCC[N+](C)(C)CCl | – | 4.3 µM |
| CCCCCCCCCCCCCCCC[n+]1cccc2ccccc21 | – | 3.05 µM |
| O=c1oc2ccccc2c(O)c1Cc1cc(Cl)c2cccnc2c1O | – | 3.36 µM |
| O=C(c1ccc(Cl)cc1)N1CCN(c2ccc(F)cc2)CC1 | – | 4.47 µM |
| O=C1OCC(CO)(CO)N=C1NNc1ccc(Cl)c(Cl)c1 | – | 2.2 µM |
| CCCCC(=O)NC(c1ccc(C(C)C)cc1)c1ccc2cccnc2c1O (configuration not stated) | – | 6.98 µM |
| O=C(Nc1ccccc1)c1nnsc1S(=O)c1ccc(Cl)cc1 (configuration not stated) | – | < 0.195 µM |
| O=c1c(-c2ccccc2)c(-c2ccccc2)oc2cc(O)cc(O)c12 | – | 8.72 µM |
| O=C(c1ccc(-c2ccccc2)c(F)c1)C1CCCN(C(=O)c2cncs2)C1 (configuration not stated) | – | 8.42 µM |
| Cc1ccc(S(=O)(=O)Nc2ccc3cc([N+](=O)[O-])ccc3c2[N+](=O)[O-])cc1 | – | 11.9 µM |
| O=[N+]([O-])c1ccc(Sc2nc3ccccc3o2)c([N+](=O)[O-])c1 | – | 3.56 µM |
| CCN1/C(=C\c2ccc3ccccc3[n+]2CC)Sc2cc(C)ccc21 | – | 7.9 µM |
| O=C(C#Cc1ccccc1)c1ccc([N+](=O)[O-])cc1 | – | 2.1 µM |
| CCCCCCCCCCCCCC(=O)NO | – | < 0.195 µM |
| CCCCCCCCCCCCCCCC[n+]1ccc(C(N)=O)cc1 | – | 7.6 µM |
| CC(C)(C)C(=O)NC(=S)NNC(=O)c1sc2ccccc2c1Cl | – | 7.72 µM |
| O=C(/C=C/c1ccccc1[N+](=O)[O-])c1ccccc1Br | – | 3.2 µM |
| O=C(Nc1nc(-c2ccco2)c(-c2ccco2)s1)c1ccco1 | – | 6.08 µM |

Reference: PubChem BioAssay AID540268 (Broad Institute, 2011)
